No end group written: not given here. *: point of attachment. Palmitoyl = CCCCCCCCCCCCCCCC(=O)*
Legend:
heart = assay: Phage screen of 12 phage in mice with myocardial infarction; format: in vivo; details: for preferential localization of phage-displayed peptide in the heart: mice 1, 3 and 7 days after MI, phage circulated 10 minutes; for time point preference of heart localization after infarct: 1, 3 and 7 days post-MI
Procedure: A limited phage screen of 12 phage was performed in a study against mice with myocardial infarction (MI) lasting 1, 3 and 7 days. This panel of phage was selected to include phage with a greater potential for injured tissue, a positive non-specific control and a negative control phage. All publications and references cited in FIG. 24 are incorporated by reference to the extent such incorporation is not contrary to the invention described therein. Nothing herein is to be construed as an admission that the invention is not entitled to antedate such disclosure by virtue of prior invention.
Amplified phage were mixed in a 1:1 ratio and 200 μl injected at 1×10^9 pfu/ml into animals 1, 3 and 7 days after myocardial ischemia was produced. Phage were allowed to circulate for 10 minutes before the animal was perfused through the left ventricle with warmed DMEM/BSA (1%, ˜10 ml) with the right ventricle cut. Tissues (heart, lung, liver, spleen, kidney) were then harvested and stored on ice in 1 ml of DMEM/BSA (1%) before homogenization (Omni International TH homogenizer). Four washes were performed using PBS/BSA (1%) with centrifugation at 2800 RCF (5 min, 4° C.) and resuspension in PBS/BSA (1%). After the final wash, homogenates were weighed then lysed with 100 μl Triton-X-100 (1% in PBS) on ice for 15 minutes; 900 ul of BLT5403 (OD 600) was then added and incubated for 10 minutes (r.t.). This solution was then serially diluted in LB+CarbenicilHn and 240 ul aliquots taken into 1.2 ml BLT5403 and 600 μl plated on 10 cm agar plates with 4 ml top agar. Following overnight incubation, plaques were counted and the pfu/g tissue homogenate was calculated. Plaques were picked into 30 μl of PBS, 1 μl of this solution was transferred into 14 μl PCR mix (GoTaq Green Master Mix 7.5 μl, 1.5 μl 5 μM T7down (AACCCCTCAAGACCCGTTTA (SEQ ID NO: 13)), 1.5 μl 5 μM T7 Superup (AGCGGACCAGATTATCGCTA (SEQ ID NO: 24)), 3.5 μl of DNAse free water). This mix was then subjected to polymerase chain reaction (PCR) (1 cycle of 5 min 94° C.; 35 cycles of 94° C. 30 s, 50° C. 30 s, 72° C. 1 min; 1 cycle 72° C. 1 min; hold at 4° C.). The PCR samples then underwent cleanup and sequencing.

ischemic hindlimb = assay: Fluorescent peptide homing studies, mouse hindlimb ischemia model; format: in vivo; details: for homing of peptide in the mouse ischemic hindlimb: cryosections, FIG. 16; for tissue to which the peptide homed: fluorescent peptide studies
Procedure: Four palmitated peptides were synthesized: SK(biotin)[…] […] Human mesenchymal stem cells (hMSCs) were transiently coated with the four palmitated peptides and fluorescently labeled with Vybrant dye. […] MSCs were grown in DMEM/FBS (10%) supplemented with FGF (5 ng/ml), then trypsinized, washed with DMEM and aliquoted at 1 million cells/vial and resuspended in Tyrodes. […] Cell solutions were then centrifuged (200 RCF, 5 min, r.t.), washed twice with cold Tyrodes, then incubated for 20 min with 20 μg/ml streptavidin-PE (S866 Invitrogen), washed with Tyrodes, fixed with formalin, and then assessed using flow cytometry and epifluorescent microscopy.
For animal experiments, MSCs were first incubated with Vybrant green (CDFA SE; Invitrogen) washed with Tyrodes, then coated with 50 μg/ml PA-peptides for 10 min at 37° C. with shaking. Following coating, cells were washed with Tyrodes twice and resuspended to give 5×10^6 cells/ml. Ischemia was produced in the left hind-limb through ligation and severing of the femoral artery in mice. Three days post ischemia, mice were injected with […] through the subclavian vein and cells allowed to circulate for two hours before sacrifice. Distribution of injected MSCs was monitored by whole-body (“Xenogen”) fluoroscopy. Animals were sacrificed and tissues (heart, lung, liver, spleen, kidney, left calf muscle, left femur muscle, right calf muscle and right femur muscle) were harvested and fluorescence histology was done on tissue cryosections.

ischemic hearts = assay: Uptake and localization of fluorescently labeled CRPPR in ischemic hearts; format: in vivo, mouse; details: 30 minutes, 6 hour and 24 hour ischemia
Procedure: Fluorescently labeled CRPPR (SEQ ID NO: 1) was also studied for uptake and localization in ischemic hearts (30 minutes, 6 hour and 24 hour ischemia). This fluorescently labeled peptide was injected through the subclavian vein and allowed to circulate for two hours before sacrifice. Tissues (heart, lung, liver, spleen and kidney) were harvested, placed in TISSUE-TEK® molds and frozen in OCT cryomounting medium. The tissues were stored on dry ice until being placed at −80° C. and 8-10 μn sections were made.
Sections of heart tissue through different regions of the heart were imaged using a fluorescent microscope and CCD camera. The images were then assessed for total fluorescence using ImageJ (Image Processing and Analysis in Java) (see FIG. 2).

heart tissue = assay: Homing of peptide-coated MSCs in mouse MI reperfusion model; format: in vivo, C57BL6 mice; details: for distribution of cells within heart tissue: coated MSCs, 1 hour circulation, day after 30 minute ischemia/reperfusion
Procedure: C57BL6 mice were operated on with a sterile surgical technique. Mice were anaesthetized and intubated. A longitudinal incision was made in the thorax and the heart elevated. The left anterior descending artery was identified, and a ligature suture was placed around the artery and tightened down over a piece of polyethylene tubing placed above the artery, as shown in FIG. 1. After 30 minutes the ligation was released, the chest closed and the mouse was allowed to recover. The following day the mouse was again anaesthetized and intubated, the thoracotomy re-opened and cells administered through the left ventricle (1×10^6 cells). Cells were allowed to circulate for 1 hour before blood was collected into EDTA tubes and the mouse sacrificed via exsanguination. Blood was collected just prior to exsanguination to provide samples for assay of Troponin I levels.
Sections were cryosectioned 8 microns thick, mounted in sequence onto slides and viewed for the fluorescent label of the cells.
Histology sections of cardiac tissues were examined for VYBRANT® (CDFA SE; Invitrogen) green-labeled cells to determine the cells' propensity to target or home to distinct regions of the tissues, especially those associated with the infarcted region. Outcomes were evaluated via quantitative fluorescent microscopy of infarcted and non-infarcted tissues. Area in millimeters squared were calculated from representative cross-sections and numbers of cells were counted on a series of sections taken through the heart.
Sections of heart tissue were also analyzed using fluorescent microscopy. Five slides containing six sections per slide were analyzed. On each section a count of the number of cells was made. The count was then normalized against the area of the centre section on that slide.
An enzyme-linked immunosorbent assay (ELISA) (Life Diagnostics, Inc., Cat. No. 2010-1-HSP) of cardiac troponin I was made on the plasma collected from each mouse according to the manufacturer's method. Briefly, 60 μl of plasma sample was diluted with 180 μl plasma diluent. Standards and samples (100 μl) were added to coated wells containing 100 μl of cardiac troponin I horse radish peroxidase conjugate. These were mixed on an orbital shaker at room temperature for 1 hour. This solution was removed and the wells were washed thoroughly; 100 μl of tetramethylbenzidine reagent was then added to each well. This was incubated on the orbital shaker at room temperature for 20 minutes, then stop solution was added (100 μl) and the absorbance read at 450 nm (Tecan Genios Pro).

[1] = test system: human mesenchymal stem cells (MSCs); assay: MTT toxicity assay of PA-peptides; format: cell-based; details: 1 hour incubation
Procedure: Human mesenchymal stem cells (MSCs) were seeded on 96-well plates (5.8×10^3 cells/well; DMEM/FBS 10%) and allowed to grow/adhere for 2 days. Media was removed and PA-peptides were added (0-0.1 mg/ml) to the cells. Toxicity was assessed after 10 minute incubation and 1 hour incubation. Acute effects were assessed immediately following the 10 minute exposure, and longer-term effects were measured the next day after the 10 minute exposure and the 1 hour exposure. Toxicity was assessed using the MTT method. Briefly, 20 μl of MTT (5 mg/ml in PBS, sterile filtered, Corning 0.22 μm Polyethersulfone) was added to each well and the plate was then incubated for 4 hours at 37° C. Media containing MTT was then carefully removed and 100 μl of dimethyl sulfoxide (DMSO) was added to each well. Plates were incubated for a further 30 minutes at 37° C. to solubilize the purple formazan crystals, and absorbance was then measured using a plate reader (570 nm; Tekan Genios Pro).

[2] = test system: human mesenchymal stem cells (MSCs)
Procedure: MSCs were grown in Dulbecco's Modified Eagle's Medium (DMEM) and fetal bovine serum (FBS) (10%) supplemented with fibroblast growth factor-2 (FGF-2) (5 ng/ml) for 1 week. They were then trypsinized, washed with DMEM, aliquoted at 1 million cells/vial and resuspended in Tyrodes' balanced salt solution. […] was later used throughout the coating procedure. […] Cell solutions were centrifuged (200 RCF, 5 min, r.t.), washed twice with cold Tyrodes solution, then incubated for 20 minutes with 20 μg/ml streptavidin-PE (S866 Invitrogen), washed with Tyrodes solution, fixed with formalin, and then assessed using flow cytometry and epifluorescent microscopy.

Substance	preferential localization of phage-displayed peptide in the heart (heart)	tissue to which the peptide homed (ischemic hindlimb)	distribution of cells within heart tissue (heart tissue)	also measured
CARSKNKDC (Targeting Sequence 5)	some preferential localization in the heart	–	–	–
CGLIIQKNEC (Targeting Sequence 3) [Clot1, homing peptide]	–	–	–	homing of peptide in the mouse ischemic hindlimb (ischemic hindlimb): homing
CREKA (Targeting Sequence 8)	some preferential localization in the heart	–	–	time point preference of heart localization after infarct (heart): three day time point
CRKDKC (cysteine pairing not given here; also: fluorescent label, position not given here)	some preferential localization	–	–	homing of peptide in the mouse ischemic hindlimb (ischemic hindlimb): homing
CRPPR (not fully specified)	some preferential localization in the heart	–	–	ischemia time at which localization was most pronounced (ischemic hearts): most pronounced after 24 hour ischemia; localization of fluorescent peptide in heart tissue (ischemic hearts; two hours circulation): localize in heart tissue; time point preference of heart localization after infarct (heart): some preference for the earlier time point after infarct
PA-CRKDKC (Palmitoyl-CRKDKC; cysteine pairing not given here) [palmitated peptide (cell paint)]	–	homed to ischemic muscle tissue	papillary fibers have a higher concentration of cells than the cardiac muscle	–
PA-CRPPR (Palmitoyl-CRPPR) [palmitated peptide (cell paint)]	–	homed to cardiac tissue	some localization with vasculature	–
PA-KSTRKS (Palmitoyl-KSTRKS) [palmitated peptide (cell paint)]	–	homed to ischemic skeletal muscle tissue	distributed cells with some localization in vessels	concentrations causing a decrease in mitochondrial activity [1]: ≥ 50 µg/mL
PA-SK(Biotin)NSCARSKNKDC [PA-BioCAR]	–	homed to ischemic skeletal muscle tissue	distributed throughout the cardiac muscle	correlation between heart damage (cardiac troponin I) and cell number (heart tissue; FIG. 14): more cells localizing in the heart after relatively larger damage; cell labeling by the peptide ([2]; FIGS. 4 and 5): labeled the cells efficiently; cell-associated fluorescence ([2]; PA-BioCAR 0 to 2 mg/ml, 10 minutes, 37° C., streptavidin-PE): increasing cell-associated fluorescence with increasing PA-BioCAR concentration

Source: patent US8580749B2, “Peptide-coated cell localization to diseased or damaged tissues and methods related thereto” (Cell Targeting, Inc., priority 2009, dated 2013)
